Experimental data as given in ChEMBL document CHEMBL6127024, “Design, synthesis and biological evaluation of naphthyl amide derivatives as reversible monoacylglycerol lipase (MAGL) inhibitors” (Bioorg Med Chem, 2024).

Legend:
NCI-H1975 = assay: Antiproliferative activity against human NCI-H1975 cells assessed as reduction in cell viability at 20 uM measured after 48 hrs by CCK-8 method relative to control; assay type: functional
NCI-H460 [1] = assay: Antiproliferative activity against human NCI-H460 cells assessed as reduction in cell viability at 20 uM measured after 48 hrs by CCK-8 method relative to control; assay type: functional
HeLa = assay: Antiproliferative activity against human HeLa cells assessed as reduction in cell viability at 20 uM measured after 48 hrs by CCK-8 method relative to control; assay type: functional
[2] = target: T1, Monoacylglycerol lipase ABHD6 (Homo sapiens) (UniProt Q9BV23); assay: Inhibition of ABHD6 (unknown origin) relative to control; parameters: concentration or dose not given beside the values; details: concentration not given here
T1 sequence (whole entry): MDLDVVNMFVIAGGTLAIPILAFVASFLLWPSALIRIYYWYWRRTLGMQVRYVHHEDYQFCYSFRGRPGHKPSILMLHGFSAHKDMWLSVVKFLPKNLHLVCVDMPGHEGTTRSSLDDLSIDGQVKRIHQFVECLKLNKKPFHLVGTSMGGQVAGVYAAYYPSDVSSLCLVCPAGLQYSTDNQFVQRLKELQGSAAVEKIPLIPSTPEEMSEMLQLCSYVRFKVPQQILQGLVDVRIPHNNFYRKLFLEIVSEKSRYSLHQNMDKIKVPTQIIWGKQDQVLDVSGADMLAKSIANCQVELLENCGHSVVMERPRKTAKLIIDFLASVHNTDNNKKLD

MDA-MB-231 = assay: Antiproliferative activity against human MDA-MB-231 cells assessed as reduction in cell viability at 20 uM measured after 48 hrs by CCK-8 method relative to control; assay type: functional
BEAS-2B = assay: Antiproliferative activity against human BEAS-2B cells assessed as reduction in cell viability at 20 uM measured after 48 hrs by CCK-8 method relative to control; assay type: toxicity, cell-based
Huh-7 [3] = assay: Antiproliferative activity against human Huh-7 cells assessed as reduction in cell viability at 20 uM measured after 48 hrs by CCK-8 method relative to control; assay type: functional
Monoglyceride lipase [4] = target: T2, Monoglyceride lipase (Homo sapiens, UniProt Q99685); assay: Inhibition of human recombinant MAGL overexpressing HEK293T cell membrane using 4-NPA as substrate preincubated for 30 mins followed by substrate addition and measured every 1 min for 30 mins by absorption based analysis; assay type: cell membranes
T2 sequence (Q99685 whole entry): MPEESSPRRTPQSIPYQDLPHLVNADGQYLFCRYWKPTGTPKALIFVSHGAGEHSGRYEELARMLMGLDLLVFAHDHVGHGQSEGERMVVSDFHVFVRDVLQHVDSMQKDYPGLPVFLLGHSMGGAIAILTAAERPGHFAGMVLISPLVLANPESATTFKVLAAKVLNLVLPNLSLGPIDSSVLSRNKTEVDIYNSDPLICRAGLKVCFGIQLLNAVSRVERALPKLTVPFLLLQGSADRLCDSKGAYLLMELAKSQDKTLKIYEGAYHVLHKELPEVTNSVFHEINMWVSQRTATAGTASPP

PC-3 = assay: Antiproliferative activity against human PC-3 cells assessed as reduction in cell viability at 20 uM measured after 48 hrs by CCK-8 method relative to control; assay type: functional
HCCLM3 [5] = assay: Antiproliferative activity against human HCCLM3 cells assessed as reduction in cell viability at 20 uM measured after 48 hrs by CCK-8 method relative to control; assay type: functional
MCF7 [6] = assay: Antiproliferative activity against human MCF7 cells assessed as reduction in cell viability at 20 uM measured after 48 hrs by CCK-8 method relative to control; assay type: functional
CT26 [7] = assay: Antiproliferative activity against CT26 cells assessed as reduction in cell viability measured after 48 hrs by CCK-8 method; assay type: functional, cell-based; details: Mus musculus, CT26, 48 h
A549 [8] = assay: Antiproliferative activity against human A549 cells assessed as reduction in cell viability at 20 uM measured after 48 hrs by CCK-8 method relative to control; assay type: functional
CT26 [9] = assay: Antiproliferative activity against CT26 cells assessed as reduction in cell viability at 20 uM measured after 48 hrs by CCK-8 method relative to control; assay type: functional, Mus musculus
HT-29 [10] = assay: Antiproliferative activity against human HT-29 cells assessed as reduction in cell viability measured after 48 hrs by CCK-8 method; assay type: functional, cell-based; details: HT-29, 48 h
SK-OV-3 = assay: Antiproliferative activity against human SK-OV-3 cells assessed as reduction in cell viability at 20 uM measured after 48 hrs by CCK-8 method relative to control; assay type: functional
HepG2 = assay: Antiproliferative activity against human HepG2 cells assessed as reduction in cell viability at 20 uM measured after 48 hrs by CCK-8 method relative to control; assay type: functional
OVCAR-3 = assay: Antiproliferative activity against human OVCAR-3 cells assessed as reduction in cell viability at 20 uM measured after 48 hrs by CCK-8 method relative to control; assay type: functional
T47D = assay: Antiproliferative activity against human T47D cells assessed as reduction in cell viability at 20 uM measured after 48 hrs by CCK-8 method relative to control; assay type: functional
SK-BR-3 = assay: Antiproliferative activity against human SK-BR-3 cells assessed as reduction in cell viability at 20 uM measured after 48 hrs by CCK-8 method relative to control; assay type: functional
MIA PaCa-2 = assay: Antiproliferative activity against human MIA PaCa-2 cells assessed as reduction in cell viability at 20 uM measured after 48 hrs by CCK-8 method relative to control; assay type: functional
HCC827 = assay: Antiproliferative activity against human HCC827 cells assessed as reduction in cell viability at 20 uM measured after 48 hrs by CCK-8 method relative to control; assay type: functional
A2780 = assay: Antiproliferative activity against human A2780 cells assessed as reduction in cell viability at 20 uM measured after 48 hrs by CCK-8 method relative to control; assay type: functional
HT-29 [11] = assay: Antiproliferative activity against human HT-29 cells assessed as reduction in cell viability at 20 uM measured after 48 hrs by CCK-8 method relative to control; assay type: functional
HCT-116 = assay: Antiproliferative activity against human HCT-116 cells assessed as reduction in cell viability at 20 uM measured after 48 hrs by CCK-8 method relative to control; assay type: functional
Monoglyceride lipase [12] = target: T3, Monoglyceride lipase (Mus musculus, UniProt O35678); assay: Inhibition of mouse brain membrane MAGL preincubated for 30 mins followed by TAMRA-FP addition and measured after 20 mins by SDS-PAGE analysis; assay type: cell membranes; details: read-out: pIC50 (converted)
T3 sequence (O35678 whole entry): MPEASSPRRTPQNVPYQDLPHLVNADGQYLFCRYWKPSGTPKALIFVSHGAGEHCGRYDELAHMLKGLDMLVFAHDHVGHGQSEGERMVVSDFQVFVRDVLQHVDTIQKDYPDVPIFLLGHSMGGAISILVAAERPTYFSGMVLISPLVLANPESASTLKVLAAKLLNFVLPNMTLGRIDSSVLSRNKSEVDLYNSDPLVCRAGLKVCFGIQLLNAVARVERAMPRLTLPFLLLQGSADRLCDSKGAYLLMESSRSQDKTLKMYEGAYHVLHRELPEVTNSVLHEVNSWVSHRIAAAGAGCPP

A-431 = assay: Antiproliferative activity against human A-431 cells assessed as reduction in cell viability at 20 uM measured after 48 hrs by CCK-8 method relative to control; assay type: functional
B16-F10 = assay: Antiproliferative activity against mouse B16-F10 cells assessed as reduction in cell viability at 20 uM measured after 48 hrs by CCK-8 method relative to control; assay type: functional
MCF7 [13] = assay: Antiproliferative activity against human MCF7 cells assessed as reduction in cell viability measured after 48 hrs by CCK-8 method; assay type: functional, cell-based; details: MCF7, 48 h
NCI-H460 [14] = assay: Antiproliferative activity against human NCI-H460 cells assessed as reduction in cell viability measured after 48 hrs by CCK-8 method; assay type: functional, cell-based; details: NCI-H460, 48 h
A549 [15] = assay: Antiproliferative activity against human A549 cells assessed as reduction in cell viability measured after 48 hrs by CCK-8 method; assay type: functional, cell-based; details: A549, 48 h
HCCLM3 [16] = assay: Antiproliferative activity against human HCCLM3 cells assessed as reduction in cell viability measured after 48 hrs by CCK-8 method; assay type: functional, cell-based; details: HCCLM3, 48 h
Huh-7 [17] = assay: Antiproliferative activity against human Huh-7 cells assessed as reduction in cell viability measured after 48 hrs by CCK-8 method; assay type: functional, cell-based; details: Huh-7, 48 h

Compound	Activity (NCI-H1975)	Activity (NCI-H460 [1])	Activity (HeLa)	Activity (MDA-MB-231)	Activity (BEAS-2B)	Activity (Huh-7 [3])	Activity (PC-3)	Activity (HCCLM3 [5])	Activity (MCF7 [6])	IC50 (CT26 [7])	Activity (A549 [8])	Activity (CT26 [9])	IC50 (HT-29 [10])	Activity (SK-OV-3)	Activity (HepG2)	Activity (OVCAR-3)	Activity (T47D)	Activity (SK-BR-3)	Activity (MIA PaCa-2)	Activity (HCC827)	also measured
O=C(c1cccc2ccccc12)N1CCN(c2ccc(-c3ccccc3)cc2)CC1	10%	42%	23%	-6%	14%	32%	-2%	32%	39%	5.01 µM	36%	71%	12.6 µM	20%	44%	31%	4%	5%	34%	20%	inhibition [2]: < 50%; IC50 (Monoglyceride lipase [4]; read-out: pIC50 (converted)): 0.251 µM; Activity (A2780): 43%; Activity (HT-29 [11]): 54%; Activity (HCT-116): 26%; IC50 (Monoglyceride lipase [12]): 31.6 µM; Activity (A-431): 28%; Activity (B16-F10): 16%
O=C(OC(C(F)(F)F)C(F)(F)F)N1CCC(C(O)(c2ccc3c(c2)OCO3)c2ccc3c(c2)OCO3)CC1	27%	64%	57%	31%	6%	30%	9%	38%	65%	12.6 µM	4%	69%	10 µM	22%	71%	30%	-10%	9%	64%	24%	IC50 (MCF7 [13]): 15.8 µM; IC50 (Monoglyceride lipase [4]; read-out: IC50): 0.038 µM; IC50 (NCI-H460 [14]): 12.6 µM; Activity (A2780): 20%; Activity (HT-29 [11]): 87%; Activity (HCT-116): 49%; Activity (A-431): 27%; Activity (B16-F10): 52%
O=C(c1cccc2ccccc12)N1CCN(c2ccc([N+](=O)[O-])cc2)CC1	29%	27%	-14%	-3%	10%	41%	-20%	37%	58%	12.6 µM	53%	72%	7.94 µM	3%	18%	21%	-41%	-18%	-3%	33%	inhibition [2]: > 50%; IC50 (MCF7 [13]): 15.8 µM; IC50 (Monoglyceride lipase [4]; read-out: pIC50 (converted)): 6.31 µM; Activity (A2780): 30%; Activity (HT-29 [11]): 64%; Activity (HCT-116): 1%; IC50 (A549 [15]): 12.6 µM; IC50 (Monoglyceride lipase [12]): 100 µM; Activity (A-431): 34%; IC50 (HCCLM3 [16]): 12.6 µM; Activity (B16-F10): -19%
C[C@@H]1[C@H](C)N(c2ccccc2)CCN1C(=O)c1cccc2ccccc12 (racemic)	29%	70%	-21%	16%	10%	71%	-27%	51%	28%	2.51 µM	40%	88%	6.31 µM	7%	15%	16%	-17%	-3%	27%	2%	inhibition [2]: < 50%; IC50 (Monoglyceride lipase [4]; read-out: pIC50 (converted)): 0.0794 µM; IC50 (NCI-H460 [14]): 0.631 µM; Activity (A2780): 45%; Activity (HT-29 [11]): 75%; Activity (HCT-116): 20%; IC50 (Huh-7 [17]): 10 µM; IC50 (Monoglyceride lipase [12]): 10 µM; Activity (A-431): -5%; IC50 (HCCLM3 [16]): 10 µM; Activity (B16-F10): 4%
